Experimental data from BindingDB's records for patent US10660876 (Achillion Pharmaceuticals, 2020).

Molecular target: Complement factor D (Homo sapiens, UniProt P00746)
Experiment: Inhibition Assay
Description: Human Factor D (purified from human serum, Complement Technology, Inc.) at 80 nM final concentration is incubated with test compound at various concentrations for 5 minutes at room temperature in 50 mM Tris, 1M NaCl, pH 7.5. A synthetic substrate Z-L-Lys-SBzl and DTNB (Ellman's reagent) are added to final concentrations of 100 µM each. Absorbance at 405 nm (A405) is recorded at 30 second intervals for 30 minutes using a microplate spectrophotometer. IC50 values are calculated by nonlinear regression of complement Factor D reaction rates as a function of test compound concentration.

Complement factor D, sequence (P00746 whole entry): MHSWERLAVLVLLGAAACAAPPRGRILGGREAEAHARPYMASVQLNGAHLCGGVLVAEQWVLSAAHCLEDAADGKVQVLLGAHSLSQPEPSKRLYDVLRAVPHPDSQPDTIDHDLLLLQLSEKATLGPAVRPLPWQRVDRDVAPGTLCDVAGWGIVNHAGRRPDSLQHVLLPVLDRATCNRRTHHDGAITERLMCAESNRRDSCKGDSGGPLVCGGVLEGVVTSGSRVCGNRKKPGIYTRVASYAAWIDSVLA

| SMILES | IC50 |
| --- | --- |
| CC(=O)c1cn(CC(=O)N2C[C@H](F)C[C@H]2C(=O)Nc2ccccc2N2CCOC2=O)c2ccc(Nc3cncnc3)cc12 [US10660876, Cmpd No. 40] | in the range around 5.5 µM |
| CC(=O)c1cn(CC(=O)N2C[C@H](F)C[C@H]2C(=O)N[C@H]2CCCC[C@@H]2O)c2ccc(Nc3cncnc3)cc12 [US10660876, Cmpd No. 36] | in the range around 5.5 µM |
| CC(=O)c1cn(CC(=O)N2C[C@H](F)C[C@H]2C(=O)Nc2c[nH]nc2-c2ccc(Cl)cc2Cl)c2ccc(Nc3cncnc3)cc12 [US10660876, Cmpd No. 55] | in the range around 5.5 µM |
| CC(=O)c1cn(CC(=O)N2C[C@H](F)C[C@H]2C(=O)Nc2cccc(Cl)c2-n2cncn2)c2ccc(Nc3cncnc3)cc12 [US10660876, Cmpd No. 37] | in the range around 5.5 µM |
| CNC(=O)[C@@H]1C[C@@H](F)CN1C(=O)Cn1cc(C(C)=O)c2cc(Nc3cncnc3)ccc21 [US10660876, Cmpd No. 20] | in the range around 5.5 µM |
| CC(=O)c1cn(CC(=O)N2C[C@H](F)C[C@H]2C(=O)NCc2nc3ccccc3s2)c2ccc(Nc3cncnc3)cc12 [US10660876, Cmpd No. 16] | in the range around 5.5 µM |
| CC(=O)c1cn(CC(=O)N2C[C@H](F)C[C@H]2C(=O)NC2CCc3c(F)ccc(F)c32)c2ccc(Nc3cncnc3)cc12 (some centres undefined) [US10660876, Cmpd No. 51] | in the range around 5.5 µM |
| CC(=O)c1cn(CC(=O)N2C[C@H](F)C[C@H]2C(=O)Nc2nnc(-c3ccccc3Cl)s2)c2ccc(Nc3cncnc3)cc12 [US10660876, Cmpd No. 34] | in the range around 5.5 µM |
| CC(=O)c1cn(CC(=O)N2C[C@H](F)C[C@H]2C(=O)Nc2ccc(CN)cc2)c2ccc(Nc3cncnc3)cc12 [US10660876, Cmpd No. 53] | in the range around 5.5 µM |
| CC(=O)c1cn(CC(=O)N2C[C@H](F)C[C@H]2C(=O)NCc2cccc(Cl)c2F)c2cc(N(CC(=O)N3C[C@H](F)C[C@H]3C(=O)NCc3cccc(Cl)c3F)S(C)(=O)=O)ccc12 [US10660876, Cmpd No. 1] | in the range around 5.5 µM |
| CC(=O)c1cn(CC(=O)N2C[C@H](F)C[C@H]2C(=O)Nc2ccccc2-c2nc3ccccc3s2)c2ccc(Nc3cncnc3)cc12 [US10660876, Cmpd No. 32] | > 10 µM |
| COc1cc(C)cc2c1OCCC2NC(=O)[C@@H]1C[C@@H](F)CN1C(=O)Cn1cc(C(C)=O)c2cc(Nc3cncnc3)ccc21 (some centres undefined) [US10660876, Cmpd No. 54] | in the range around 5.5 µM |
| CC(=O)c1cn(CC(=O)N2C[C@H](F)C[C@H]2C(=O)Nc2ccccc2-n2nccc2C)c2ccc(Nc3cncnc3)cc12 [US10660876, Cmpd No. 30] | in the range around 5.5 µM |
| CC(=O)c1cn(CC(=O)N2C[C@H](F)C[C@H]2C(=O)Nc2nc(-c3c(C)nc4sccn34)cs2)c2ccc(Nc3cncnc3)cc12 [US10660876, Cmpd No. 49] | in the range around 5.5 µM |
